Measurements from US20230364084A1, “METHODS FOR PREVENTING OR TREATING CONDITIONS RELATED TO PIKFYVE ACTIVITY” (The Regents of the University of Michigan, priority 2020, published 2023).

What was measured:
advanced prostate cancer = conditions: two phase III trials; cited from earlier work
CXCL10 in VCaP cells = assay: human CXCL10 ELISA of conditioned medium; assay type: cell-based; conditions: VCaP cells, 24 hours
Experimental: Conditioned medium was collected after 24 hours of drug incubation. ELISA was performed using a human CXCL10 ELISA kit (Cat No. KAC2361, ThermoFisher), or a mouse CXCL10 ELISA kit (Cat No. ab214563, Abcam) according to the manufacturer's instructions.

DU145 cells = assay: cellular vacuolization morphology with autophagy inhibitors; assay type: cell-based, human; conditions: combination with ESK981, six hours
Text: The nature of the ESK981-associated cellular vacuolization was investigated in combination with various autophagic pathway inhibitors.

[1] = test system: lysosomes in VCaP, LNCaP, PC3 and DU145 cells; assay: LysoTracker Green flow cytometry; assay type: cell-based, human; conditions: bafilomycin A1 100 nM with ESK981 300 nM, 24 hours
Experimental: Cells were grown in 6-well plates and treated with various drugs. After 24 hours, cells were stained with LysoTracker® Green DND-26 (Invitrogen), and green fluorescence signal was analyzed by flow cytometry.

PC3 and DU145 cells = assay: autophagic flux detection (GFP-LC3-RFP-LC3ΔG probe); assay type: cell-based, human; conditions: PC3 or DU145 cells, 24 hours
Experimental: (§1) For autophagic flux detection, 10,000 cells were plated in 96-well plates and incubated with various compounds in complete medium for 24 hours. GFP and RFP fluorescence intensities were measured on a TECAN M1000 plate reader.

[2] = test system: GFP-LC3-RFP-LC3ΔG-expressing Myc-CaP cells; assay: autophagic flux detection in Myc-CaP cells; assay type: cell-based, mouse; conditions: 24 hours
Experimental: as §1

[3] = test system: B cell non-Hodgkin's lymphoma; conditions: cited from earlier work
[4] = test system: DU145 prostate cancer cells; assay: cell viability screen with a 167-compound tyrosine kinase inhibitor library; assay type: cell-based, human; conditions: 300 nM
Experimental: FIG. 1: ESK981 inhibits the growth of diverse preclinical models of prostate cancer and is associated with a unique vacuolization morphology. • (a) The percentage viabilities of DU145 cells treated with 300 nM ESK981 or 167 other tyrosine kinase inhibitors when compared to a vehicle control. The top five most inhibitory compounds, as well as cabozantinib and crizotinib (highlighted in orange), and their respective targets are listed in the table. ESK981 is highlighted in red. • (b) Morphological differences of nuclear-restricted RFP-expressing DU145 cells treated with 300 nM ESK981, crizotinib, or cabozantinib. • (c) A long-term survival assay was used to calculate the half-maximum inhibitory concentration (IC50) after two weeks of incubation with the serial dilutions of indicated drugs. (Top) Long-term survival assays of VCaP prostate cancer cells exposed to MTKIs. (Bottom) IC50 of ESK981, crizotinib, and cabozantinib in a panel of prostate cancer cell lines. • (d) ESK981 was effective against enzalutamide (Enza)-resistant cell lines. […] Long-term survival (two weeks) was assayed by absorbance of crystal violet at OD590. • (e) VCaP-RFP cells were cultured for three days in ultralow attachment plates to form 3D tumor spheroids prior to the indicated drug treatments. […] Fluorescence intensity of 3D spheroids was measured by IncuCyte ZOOM. • (f) Castration-resistant VCaP tumors were established subcutaneously in castrated SCID mice, and mice were randomized into three groups, which received vehicle, 30 mg/kg, or 60 mg/kg ESK981 by oral gavage once per day for the indicated dosing schedule. Tumor volumes were monitored by a digital caliper twice per week. Data were analyzed by unpaired t test and presented as mean±SEM. *p<0.05; **p<0.01. • (g) AR^+ prostate patient-derived xenograft (PDX) MDA-PCa-146-12 were implanted subcutaneously in non-castrated SCID mice, and mice were randomized into two groups receiving either once daily vehicle or 30 mg/kg ESK981 for five days each week. […] Tumor volumes were monitored twice per week. […]

[5] = test system: prostate cancer cell lines (VCaP, LNCaP, 22RV1, LNCaP-AR, PC3, DU145); assay: long-term survival assay (14 days, crystal violet); assay type: cell-based, human; conditions: panel of prostate cancer cell lines, two weeks
Experimental: Single cell suspensions were seeded into 96-well plates at a density of 1,000-30,000 cells per well. Long-term survival was determined after 14 days of drug incubation. Viable cells were fixed with 4% formaldehyde and subsequently stained with 1% crystal violet. IC50 was calculated using GraphPad Prism.

[6] = test system: LC3-II in prostate cancer cell lines; assay: LC3 lipidation western blot; assay type: cell-based, human; conditions: VCaP cells, 24 hours
Experimental: Cell lysates were harvested in Pierce RIPA Lysis buffer (Thermo Scientific) containing protease inhibitor cocktail tablets (Roche) and phosphatase inhibitor cocktail (Millipore). Protein concentration was measured using the DC Protein Assay (Bio-Rad) to ensure an equal amount of protein was loaded onto a gel. The denatured lysates were separated on NuPage 4-12% Bis-Tris Midi Protein gels (Novex) and transferred to 0.45-μm PVDF transfer membrane (Immobilon) using a TransBlot Turbo dry transfer machine (Bio-Rad). The membrane was incubated in blocking buffer (5% non-fat dry milk, Tris-buffered saline with 0.1% Tween 20) for 1 hour at room temperature. The membrane was then incubated with the listed antibodies for 1 hour at room temperature, followed by overnight incubation at 4° C. Chemiluminescent detection using ECL Prime (Amersham) and HyBlot CL autoradiography film (Denville Scientific) was used to visualize the blots. Antibodies used in the immunoblotting assays were against ATG5 (Cat No. 12994S, Cell Signaling Technology), ATG7 (Cat No. 8558S, Cell Signaling Technology), ULK1 (Cat No. 8054S, Cell Signaling Technology), Beclin1 (Cat No. 4122S, Cell Signaling Technology), FIP200 (Cat No. 12436S, Cell Signaling Technology), LC3A/B (Cat No. 127415, Cell Signaling Technology), PIKfyve (Cat No. AF7885, R&D Systems), and GAPDH (Cat No. 3683S, Cell Signaling Technology).

metastatic CRPC (mCRPC) = conditions: men with metastatic CRPC; cited from earlier work

Molecule: ipilimumab: CTLA4 inhibitor
- overall survival (advanced prostate cancer): failed to improve overall survival

Molecule: Nc1ccn([C@@H]2O[C@H](CO)[C@@H](O)C2(F)F)c(=O)n1 [gemcitabine]
- CXCL10 induction / secretion (CXCL10 in VCaP cells): robust CXCL10 inducer

Molecule: CO/C1=C\C(C)=C\[C@@H](C)[C@@H](O)[C@@H](C)C/C(C)=C/C=C/[C@H](OC)[C@@H]([C@@H](C)[C@@H](O)[C@H](C)[C@@]2(O)C[C@@H](O)[C@H](C)[C@@H](C(C)C)O2)OC1=O [bafilomycin A1]
- effect on the cellular vacuolization effects of ESK981 (DU145 cells): completely blocked
- effect on the ESK981-increased lysosome quantity [1]: readily neutralized
- autophagic flux (GFP/RFP ratio) (PC3 and DU145 cells): low autophagic flux
- autophagic flux [2]: inhibited

Molecule: Cn1cnc(N)c2ncnc1-2 [3-methyladenine]
- effect on the cellular vacuolization effects of ESK981 (DU145 cells): partially negated

Molecule: Cc1cccc(/C=N/Nc2cc(N3CCOCC3)nc(OCCc3ccccn3)n2)c1 [apilimod]
- tumor inhibition [3]: tumor inhibitory effects

Molecule: C[C@@H](Oc1cc(-c2cnn(C3CCNCC3)c2)cnc1N)c1c(Cl)ccc(F)c1Cl [crizotinib, reference compound]
- growth inhibition (cell viability) [4]: no such growth inhibitory effects
- IC50 in words [5]: micromolar
- induction of LC3-II ([6]; 300 nM): did not induce an increase in LC3-II
- induction of LC3-II ([6]; 1 μM): only weakly induced an increase in LC3-II

Molecule: CCN(CC)CCCC(C)Nc1ccnc2cc(Cl)ccc12 (centres unmarked) [chloroquine]
- effect on the cellular vacuolization effects of ESK981 (DU145 cells): completely blocked
- autophagic flux [2]: inhibited

Molecule: CCC(=O)N1CCN(c2ccc(-n3c(=O)ccc4cnc5ccc(-c6cnc7ccccc7c6)cc5c43)cc2C(F)(F)F)CC1 [Torin1]
- autophagic flux (GFP/RFP ratio) (PC3 and DU145 cells): decreased the GFP/RFP ratio
- CXCL10 induction / secretion (CXCL10 in VCaP cells): marginally increased CXCL10 secretion, but only at higher concentrations

Molecule: pembrolizumab: PD-1 inhibitor
- response rates (metastatic CRPC (mCRPC)): 3-5%
